As usually defined, the IC50 is the midpoint of a concentration-inhibition curve.

Structures are written as SMILES.

The text below walks through data of patent US7053095B2, “Triazole compounds as transforming growth factor (TGF) inhibitors” (Pfizer Inc., priority 2002, dated 2006).

For this test, the target named is T1, TβRI (ALK-5) (Homo sapiens, UniProt P36897).
T1 construct: with same assay conditions using either the kinase domain of ALK5 with Smad3 as substrate; GST
T1 sequence (P36897 205-495 limits assumed): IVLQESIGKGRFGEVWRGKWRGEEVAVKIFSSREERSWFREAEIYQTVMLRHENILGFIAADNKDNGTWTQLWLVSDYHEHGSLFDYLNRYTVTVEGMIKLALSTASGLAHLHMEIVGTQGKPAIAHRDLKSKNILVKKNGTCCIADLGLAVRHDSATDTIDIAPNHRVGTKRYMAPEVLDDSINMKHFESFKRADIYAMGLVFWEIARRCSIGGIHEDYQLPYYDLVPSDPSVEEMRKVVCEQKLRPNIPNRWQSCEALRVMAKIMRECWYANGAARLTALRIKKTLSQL
Put plainly: ALK-5 (TβRI) kinase assay. In kind it is biochemical. The procedure:
ALK-5 (TβRI) Kinase Assay Protocol
The kinase assays were performed with 65 nM GST-ALK5 and 84 nM GST-Smad3 in 50 mM HEPES, 5 mM MgCl2, 1 mM CaCl2, 1 mM dithiothreitol, and 3_M ATP. Reactions were incubated with 0.5_Ci of [33 P]_ATP for 3 h at 30° C. Phosphorylated protein was captured on P-81 paper (Whatman, Maidstone, England), washed with 0.5% phosphoric acid, and counted by liquid scintillation. Alternatively, Smad3 or Smad1 protein was also coated onto FlashPlate Sterile Basic Microplates (PerkinElmer Life Sciences, Boston, Mass.). Kinase assays were then performed in Flash-Plates with same assay conditions using either the kinase domain of ALK5 with Smad3 as substrate or the kinase domain of ALK6 (BMP receptor) with Smad1 as substrate. Plates were washed three times with phosphate buffer and counted by TopCount (Packard Bio-science, Meriden, Conn.). (Laping, N.J. et al. Molecular Pharmacology 62:58–64 (2002)).

Consider `Cc1cccc(-c2n[nH]nc2-c2ccc3nnc(C)n3c2)n1` [Example 2, 3-Methyl-6-[5-(6-methyl-pyridin-2-yl)-2H-[1,2,3]triazol-4-yl]-[1,2,4]triazolo[4,3-a]pyridine], for which the IC50 was about 58 nM.
